# “Also recorded” adds a separate entry of the source.
# Key:
# [1] = tested on: primary OPCs; test: Screen for protection of OPC division at sublethal concentrations of psychosine; assay type: cell-based, rat; conditions: psychosine concentrations that suppress division without appreciable death
# Description: Experiments were conducted to identify FDA-approved agents that rescue precursor cells of the CNS from the effects of the lipids thought to be toxic in KD, GD and MLD. To identify therapeutic agents that could be candidates for relatively rapid translation to the clinic, candidate agents were screened (based on cellular and molecular analyses) and unbiased drug screens were conducted using the NINDSII library of 1040 compounds approved by the FDA or in clinical trials. The intent of these screens was to discover previously unknown activities of agents for which pharmacokinetic and toxicological information is already available. The initial screening assays used are for (i) protection against OPC death induced by lethal concentrations of toxic lipids (48 hr exposure) and (ii) protection of OPC division induced by exposure to sublethal concentrations of toxic lipids. […]
# [2] = tested on: primary OPCs; test: Screen for protection against OPC death induced by lethal concentrations of psychosine; assay type: cell-based, rat; conditions: for rescue of cell survival from psychosine: primary OPCs, lethal psychosine exposure
# Description: Experiments were conducted to identify FDA-approved agents that rescue precursor cells of the CNS from the effects of the lipids thought to be toxic in KD, GD and MLD. To identify therapeutic agents that could be candidates for relatively rapid translation to the clinic, candidate agents were screened (based on cellular and molecular analyses) and unbiased drug screens were conducted using the NINDSII library of 1040 compounds approved by the FDA or in clinical trials. The intent of these screens was to discover previously unknown activities of agents for which pharmacokinetic and toxicological information is already available. The initial screening assays used are for (i) protection against OPC death induced by lethal concentrations of toxic lipids (48 hr exposure) and (ii) protection of OPC division induced by exposure to sublethal concentrations of toxic lipids.
# In this screen, a library of 1040 compounds, either approved for use or in clinical trials, were examined at three different doses for their ability to protect against psychosine-induced cell death. […]
# [3] = tested on: immortalized cell line characterized as an oligodendrocyte progenitor cell line; conditions: Zaka et al.; immortalized cell line, 50 μM psychosine; cited from earlier work
# [4] = tested on: twitcher −/− mice; test: In vivo treatment of twitcher -/- mice (model of Krabbe disease); conditions: for appearance and behavior (films, still images): 24-day-old twi−/− mice
# From the text: In order to determine whether agents identified in in vitro studies are capable of providing an in vivo benefit, the effects of IGF-1 were examined in twitcher −/− mice, an accepted model of Krabbe disease. The twitcher −/− mice harbor a mutation in galactocerebosidase that mimics Krabbe disease. The strategy for in vivo analyses was to determine whether FDA-approved compounds of potential interest improve neurological symptoms and/or extend survival times of twi−/− mice. These studies used techniques employed in studies on toxicity of chemotherapeutic agents for the CNS (See Dietrich et al. J. Biol. 5 (7): e22 (2006); Han et al. CNS J. Biol. 7: e12 (2008)).
# In in vivo experiments, IGF-I was administered daily, beginning 10 days after birth, through i.p. injection (100 μg/kg, which is below dosages used in other studies using peripheral administration (See Aberg et al. J. Neurosci. 20: 2896-2903 (2000)). This time point is earlier than the expression of neurological symptoms but is considerably later than that used in attempts to treat these mice by HSC transplants, enzyme replacement therapy or both combined (See Qin et al. Mol. Genet. Metab. 107: 186-196 (2012)). Mice were evaluated at 24 days of age to enable analysis of cell division in vivo. Comparative analysis after 40 days was not possible due to death of the control (saline-treated) twi−/− mice shortly after 40 days of age.
# Drugs are delivered once daily by i.p. administration (using 100 μg/kg, which provide benefit (see FIG. 8). All animals are marked and genotyped within the first week after birth to identify +/+, +/− and −/− pups. Outcome measures such as (i) weight gain, motor activity, rotorod analysis, auditory brainstem response and survival are analyzed.
# Mice were sacrificed at Day 25 to examine OPC division in vivo (FIG. 8).
# [5] = tested on: primary oligodendrocyte progenitor cells; test: Protection of OPCs against toxicity of glucopsychosine and lysosulfatide; assay type: cell-based; conditions: OPC survival
# From the text: Since lysosomal storage disorders are so rare, there is a strong disincentive to invest heavily in treatments. Therefore, there is a clear need to identify agents that would be of use in the treatment of multiple lysosomal storage disorders. […] Nonetheless, due to the importance of such a goal, the agents that protect against both cell death and suppression of cell division caused by exposure to psychosine were examined in order to determine their potential utility in protection against the toxic effects of glucopsychosine (elevated in Gaucher's disease) and of lysosulfatide (elevated in metachromatic leukodystrophy). These diseases were chosen as they come from two functionally different disease groups as defined by a cellular assay for lysosomal function wherein BODIPY-LacCer uptake is detected.
# The ability of agents that protect against psychosine mediated suppression of cell division and cell survival to also protect against the toxicity of glucopsychosine and lysosulfatide was examined.
# [6] = tested on: primary OPCs; test: Survival of OPCs exposed to toxic lipids (calcein AM / propidium iodide, CELIGO); assay type: cell-based
# Description: Whether toxic lipids have similar effects on the function of oligodendrocyte precursor cells (OPCs, the direct ancestors of myelin-forming oligodendrocytes), due to the common features of myelin breakdown and failure to repair such damage in LSDs, was determined. These experiments all used standard techniques (see Mayer et al. PNAS, 91: 7496-7500 (1994); Ibarrola et al. Dev. Biol. 180: 1-121 (1996); Smith et al. PNAS 97: 10032-10037 (2000); Power et al. Dev. Biol. 245: 362-375 (2002); Dietrich et al. J. Biol. 5: e22 (2006); Li et al. PLoS Biol. 5: e35 (2007)), as adapted to enable rapid automated analysis of microscopy images captured using the CELIGO® imaging system (Brooks Automation, Chelmsford, Mass.). This system enables collection of data using brightfield and three-color fluorescence and provides similar information to be obtained at the single cell level in adherent cell cultures as yielded by flow cytometry. This approach enables quantitatively analysis of 80 different experimental conditions (in triplicate) per hour.
# Studies on division and survival of OPCs exposed to 0.1, 0.5, 1, 2, 5 or 10 μM PC, GPS or LS were conducted for 1, 2, 3 or 5 days. These experiments followed standard procedures (see Mayer et al. PNAS, 91: 7496-7500 (1994); Dietrich et al. J. Biol. 5: e22 (2006); and Han et al. J. Biol. 7 (4):12 (2008)) except that cell death was quantified using calcein AM and propidium iodide (PI) labeling of live cultures was used to identify live and dead cells, respectively. […] These dyes effectively overcome the problems with dyes for which cell numbers are inferred from metabolic activity (e.g., MTT, Alamar Blue), and provide quantitative information on cell numbers. Independent confirmation was obtained in all cases by visual examination of cultures. In these, and all other cases, all experiments were repeated at least three times, and all data points were collected in triplicate. All experiments were conducted in conditions of 5% O2, to more closely mimic physiological oxygen concentrations.
# The sensitivity of primary OPCs to PC was determined. The sensitivity of the cells to glucopsychosine (GPC) and lysosulfatide (LS) was also examined. […] Thus, OPCs are even more sensitive to PC than oligodendrocytes, which are sensitive at 10 μM psychosine. More critically, they are an order of magnitude more sensitive than indicated by studies described in Zaka et al. (Mol. Cell Neurosci. 30 (3): 398-407 (2005)) on immortalized cell lines.
# [7] = tested on: human fetal neuroepithelial stem cells (hNSCs); test: Sensitivity of human CNS precursor cells to toxic lipids; assay type: cell-based
# [8] = twi−/− mice, 24 days of age, 100 μg/kg i.p. daily
compound,measurement,setting,value
CC(C)(C)CC(C)(C)c1ccc(O)c(Cc2ccc(Cl)cc2Cl)c1 [clofoctol],rescue of cell division from psychosine,[1],inhibit cell death and reduce suppression of cell division; also recorded: rescued both cell survival and cell division
same,rescue of cell survival from psychosine,[2],inhibit cell death and reduce suppression of cell division; also recorded: rescued both cell survival and cell division
COc1ccc(C(Cl)=C(c2ccc(OC)cc2)c2ccc(OC)cc2)cc1 [chlorotrianisene],rescue of cell division from psychosine,[1],inhibit cell death and reduce suppression of cell division
same,rescue of cell division from psychosine,[1]; listed as Chlorotrianisene,rescued both cell survival and cell division
same,rescue of cell survival from psychosine,[2],inhibit cell death and reduce suppression of cell division; also recorded: rescued both cell survival and cell division
VEGF,rescue of cell division from psychosine,[1],ability to protect both cell division and cell survival; also recorded: inhibit cell death and reduce suppression of cell division
same,rescue of cell survival from psychosine,[2],ability to protect both cell division and cell survival; also recorded: inhibit cell death and reduce suppression of cell division
"IGF-1: insulin-like growth factor-I, polypeptide",rescue of cell division from psychosine,[1],ability to protect both cell division and cell survival; also recorded: rescued both division and survival; also recorded: protects against psychosine mediated suppression of cell division and cell survival; also recorded: inhibit cell death and reduce suppression of cell division; also recorded: Rescue of cell division is also achieved at physiologically relevant dosages
same,dose giving marked protection from psychosine-induced cell death,[3],one
same,exposure level giving slight (marginal) reduction of psychosine-induced cell death,[3],100 ng/mL
same,"appearance and behavior (films, still images)",[4]; 100 μg/kg i.p. daily,"normal body extension, sleek fur and evidence of extensive locomotor behavior"
same,"appearance and behavior (films, still images)","[4]; 100 μg/kg i.p. daily, listed as IGF-I",essentially normal in appearance
same,"locomotor activity (velocity of movement, cm/sec)",[4]; [8],statistically normal locomotor activity
same,weight gain,[4]; [8],normal weight gain
same,"locomotor activity (velocity of movement, cm/sec)","[4]; twi−/− mice, 24 days of age, 100 μg/kg i.p. daily, listed as IGF-I",restores movement to normal levels
same,more dividing OPCs than in saline-treated mice,"[4]; twi−/− mice, corpus callosum, Day 25, 100 μg/kg i.p. daily from 10 days after birth",~45%
same,dosage at which beneficial effects on survival are seen,[2]; primary OPCs exposed to psychosine,10 ng/mL
same,rescue of cell survival from psychosine,[2],ability to protect both cell division and cell survival; also recorded: rescued both division and survival; also recorded: protects against psychosine mediated suppression of cell division and cell survival; also recorded: inhibit cell death and reduce suppression of cell division
same,protection against toxicity of glucopsychosine,[5],protects against the toxicity of glucopsychosine and lysosulfatide; also recorded: similarly effective against lysosulfatide and glucopsychosine as it was against psychosine
same,protection against toxicity of lysosulfatide,[5]; survival data at 5 days,protects against the toxicity of glucopsychosine and lysosulfatide; also recorded: similarly effective against lysosulfatide and glucopsychosine as it was against psychosine
CCCCCCCCCCCCC/C=C/[C@@H](O)[C@@H](N)CO[C@@H]1O[C@H](CO)[C@H](O)[C@H](OS(=O)(=O)O)[C@H]1O [lysosulfatide],exposure level as low as which toxic for OPCs,[6],3.304
same,exposure range toxic for primary OPCs and other primary CNS cells,[6],low micromolar range
CC(C)(C)NCC(O)c1ccccc1Cl (centres unmarked) [tulobuterol],rescue of cell division from psychosine,[1],inhibit cell death and reduce suppression of cell division; also recorded: rescued both cell survival and cell division
same,rescue of cell survival from psychosine,[2],inhibit cell death and reduce suppression of cell division; also recorded: rescued both cell survival and cell division
C=C[C@@]1(C)CC(=O)[C@]2(O)[C@@]3(C)[C@@H](O)CCC(C)(C)[C@@H]3[C@H](O)[C@H](OC(C)=O)[C@@]2(C)O1 [colforsin],rescue of cell division from psychosine,[1],inhibit cell death and reduce suppression of cell division; also recorded: rescued both cell survival and cell division
same,rescue of cell survival from psychosine,[2],inhibit cell death and reduce suppression of cell division; also recorded: rescued both cell survival and cell division
CCCCCCCCCCCCC/C=C/[C@@H](O)C(N)CO[C@@H]1O[C@H](CO)[C@@H](O)[C@H](O)[C@@H]1O (some centres unmarked) [glucopsychosine],exposure level as low as which toxic for OPCs,[6],3.304
same,exposure range toxic for primary OPCs and other primary CNS cells,[6],low micromolar range
same,vulnerability of hNSCs compared with rat OPCs,[7],at least as vulnerable
